Measured values: publication PMC3395807 (Journal of Medicinal Chemistry, 2012)
Entries after “also recorded” stand apart in the source; their conditions may differ.

Legend:
rat plasma protein = assay: Rat plasma protein binding
human plasma protein = assay: Human plasma protein binding
DENV [1] = assay: DENV in-cell western assay in Huh7.5 cells; type: cell-based, dengue virus; settings: DENV infected Huh7.5 cells, side-by-side comparison, Figure 5A
mouse plasma protein = assay: Mouse plasma protein binding
[2] = system: human CYP450s (1A2, 2C9, 2C19, 2D6, and 3A4); assay: Inhibition of five major human CYP450s; settings: 10 μM
DENV [3] = assay: DENV virus yield reduction assay in BHK cells; type: cell-based, dengue virus (serotype 2, New Guniea C strain); settings: 0.8 to 20 μM, Figure 5B
[4] = MTT cytotoxicity assay in BHK cells; settings: hamster
DENV [5] = settings: DENV infected AG129 mice; cited from earlier work

SMILES	Rat Plasma Protein Binding (rat plasma protein) [% bound]	Human Plasma Protein Binding (human plasma protein) [% bound]	antiviral activity in in-cell western assay (DENV [1])	Mouse Plasma Protein Binding (mouse plasma protein) [% bound]	inhibition on any of the five major drug metabolizing human CYP450s [2]	reduction of DENV titers (DENV [3])	CC50 [4] [µM]	in vivo antiviral efficacy (viremia) (DENV [5])
CCCC(CCC)OCCCCCCN1C[C@H](O)[C@@H](O)[C@H](O)[C@H]1CO [Compound 1c]	77	91	–	–	–	–	–	–
OC[C@@H]1[C@@H](O)[C@H](O)[C@@H](O)CN1CCCCCCOC1CCCCCC1 [Compound 2l, (2R,3R,4R,5S)-1-(6-(Cycloheptyloxy)hexyl)-2-(hydroxymethyl)piperidine-3,4,5-triol]	65	71	much improved antiviral activity compared to compound 7	–	–	–	–	–
Cc1cccc(OCCCCCCN2C[C@H](O)[C@@H](O)[C@H](O)[C@H]2CO)c1 [Compound 3c]	79	80	–	–	–	–	–	–
OC[C@@H]1[C@@H](O)[C@H](O)[C@@H](O)CN1CCCCCCOc1cccc(F)c1 [Compound 3j, (2R,3R,4R,5S)-1-(6-(3-Fluorophenoxy)hexyl)-2-(hydroxymethyl)piperidine-3,4,5-triol]	71	78	much improved antiviral activity compared to compound 7	79	no inhibition	–	–	–
OC[C@@H]1[C@@H](O)[C@H](O)[C@@H](O)CN1CCCCCCOc1cc(F)ccc1F [Compound 3l, (2R,3R,4R,5S)-1-(6-(2,5-Difluorophenoxy)hexyl)-2-(hydroxymethyl)piperidine-3,4,5-triol]	68	74	much improved antiviral activity compared to compound 7; also recorded: the most potent one	77	–	being the most potent	–	–
OC[C@@H]1[C@@H](O)[C@H](O)[C@@H](O)CN1CCCCCCOc1cccc(C(F)(F)F)c1 [Compound 3p]	90	93	–	–	–	–	–	–
COc1ccccc1OCCCCCCN1C[C@H](O)[C@@H](O)[C@H](O)[C@H]1CO [Compound 3s]	70	65	–	–	no inhibition	–	–	–
OC[C@@H]1[C@@H](O)[C@H](O)[C@@H](O)CN1CCCCCCOCc1ccccc1 [Compound 3v, (2R,3R,4R,5S)-1-(6-(Benzyloxy)hexyl)-2-(hydroxymethyl)piperidine-3,4,5-triol]	49	52	much improved antiviral activity compared to compound 7	–	no inhibition	–	–	–
CCCOc1cccc(CCCN2C[C@H](O)[C@@H](O)[C@H](O)[C@H]2CO)c1 [Compound 4b, (2R,3R,4R,5S)-2-(Hydroxymethyl)-1-(3-(3-propoxyphenyl)propyl)piperidine-3,4,5-triol]	57	68	much improved antiviral activity compared to compound 7	–	no inhibition	–	–	–
OC[C@@H]1[C@@H](O)[C@H](O)[C@@H](O)CN1CC/C=C\CCOc1cc(F)ccc1F [Compound 5c, (2R,3R,4R,5S)-1-((Z)-6-(2,5-Difluorophenoxy)hex-3-en-1-yl)-2-(hydroxymethyl)piperidine-3,4,5-triol]	–	–	–	–	–	–	> 500	–
CCC(O)(CC)CCCCCCN1C[C@H](O)[C@@H](O)[C@H](O)[C@H]1CO [Compound 7, (2R,3R,4R,5S)-1-(7-Ethyl-7-hydroxynonyl)-2-(hydroxymethyl)piperidine-3,4,5-triol]	30	33	–	–	–	–	–	reducing viremia
